Measured values taken from PMC11191095, “QSAR Reveals Decreased Lipophilicity of Polar Residues Determines the Selectivity of Antimicrobial Peptide Activity” (ACS Omega, 2024).
Where a SMILES comes first, the peptide text is derived from it.

Assays:
Assay in all cases: microbe, parasite or virus in culture
[1] = tested on: E. coli LEC001; type: cell-based, Escherichia coli
How it was run: (§1)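 Peptides 128→2 μg/mL, 2-fold series; inoculum ~5 × 10^5 CFU/mL from overnight culture (OD600 0.01, mixed 1:1). MHB non-cation-adjusted for bacteria, RPMI 1640 + 2% glucose for fungi. 37 °C, 20 h, OD600. MIC50/MIC90 at 50%/90% inhibition; n ≥ 3.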

[2] = tested on: E. coli NCTC 12923; type: cell-based, Escherichia coli
How it was run: as §1

[3] = tested on: P. aeruginosa NCTC 13437; type: cell-based, Pseudomonas aeruginosa; details: P. aeruginosa NCTC 13437 (R)
How it was run: as §1

[4] = tested on: A. baumannii ATCC 17978; type: cell-based, Acinetobacter baumannii
How it was run: as §1

[5] = tested on: A. baumannii AYE; type: cell-based, Acinetobacter baumannii; details: A. baumannii AYE (R)
How it was run: as §1

[6] = tested on: K. pneumoniae M6; type: cell-based, Klebsiella pneumoniae
How it was run: as §1

[7] = tested on: K. pneumoniae NCTC 13368; type: cell-based, Klebsiella pneumoniae; details: K. pneumoniae NCTC 13368 (R)
How it was run: as §1

[8] = tested on: S. aureus (MRSA) 1199B; type: cell-based, Staphylococcus aureus; details: S. aureus (MRSA) 1199B (R)
How it was run: as §1

[9] = tested on: S. aureus (MRSA) NCTC 13616; type: cell-based, Staphylococcus aureus; details: S. aureus (MRSA) NCTC 13616 (R)
How it was run: as §1

[10] = tested on: S. aureus (MRSA) USA300; type: cell-based, Staphylococcus aureus; details: S. aureus (MRSA) USA300 (R)
How it was run: as §1

[11] = tested on: S. aureus (MSSA) ATCC 9144; type: cell-based, Staphylococcus aureus
How it was run: as §1

[12] = tested on: C. albicans NCPF 3281; type: cell-based
How it was run: as §1

[13] = tested on: C. glabrata NCPF 8018; type: cell-based
How it was run: as §1

[14] = tested on: C. krusei NCPF 3876; type: cell-based
How it was run: as §1

[15] = tested on: C. parapsilosis NCPF 3209; type: cell-based
How it was run: as §1

[16] = tested on: C. tropicalis NCPF 8760; type: cell-based
How it was run: as §1

[17] = E. coli LEC001 (R), MHB, 37 °C, 20 h, OD600, min. three biological repeats
[18] = E. coli NCTC 12923 (S), MHB, ~5×10^5 CFU/mL, 37 °C, 20 h, OD600, min. three biological repeats
[19] = MHB, 37 °C, 20 h, OD600, min. three biological repeats
[20] = A. baumannii ATCC 17978 (S), MHB, 37 °C, 20 h, OD600, min. three biological repeats
[21] = K. pneumoniae M6 (S), MHB, 37 °C, 20 h, OD600, min. three biological repeats
[22] = S. aureus (MSSA) ATCC 9144 (S), MHB, 37 °C, 20 h, OD600, min. three biological repeats
[23] = C. albicans NCPF 3281, 50% growth inhibition, RPMI 1640 + 2% glucose, 37 °C, 20 h
[24] = C. albicans NCPF 3281, 90% growth inhibition, RPMI 1640 + 2% glucose, 37 °C, 20 h
[25] = C. glabrata NCPF 8018, 50% growth inhibition, RPMI 1640 + 2% glucose, 37 °C, 20 h
[26] = C. glabrata NCPF 8018, 90% growth inhibition, RPMI 1640 + 2% glucose, 37 °C, 20 h
[27] = C. krusei NCPF 3876, 50% growth inhibition, RPMI 1640 + 2% glucose, 37 °C, 20 h
[28] = C. krusei NCPF 3876, 90% growth inhibition, RPMI 1640 + 2% glucose, 37 °C, 20 h
[29] = C. parapsilosis NCPF 3209, 50% growth inhibition, RPMI 1640 + 2% glucose, 37 °C, 20 h
[30] = C. parapsilosis NCPF 3209, 90% growth inhibition, RPMI 1640 + 2% glucose, 37 °C, 20 h
[31] = C. tropicalis NCPF 8760, 50% growth inhibition, RPMI 1640 + 2% glucose, 37 °C, 20 h
[32] = C. tropicalis NCPF 8760, 90% growth inhibition, RPMI 1640 + 2% glucose, 37 °C, 20 h
[33] = C. albicans NCPF 3281, shown in µM
[34] = C. glabrata NCPF 8018, shown in µM
[35] = C. krusei NCPF 3876, shown in µM
[36] = C. parapsilosis NCPF 3209, shown in µM
[37] = C. tropicalis NCPF 8760, shown in µM

CC(C)[C@H](NC(=O)CNC(=O)[C@H](CCCNC(=N)N)NC(=O)[C@H](CCCNC(=N)N)NC(=O)[C@H](CS)NC(=O)[C@@H](NC(=O)[C@H](CS)NC(=O)[C@@H](N)CCCNC(=N)N)C(C)C)C(=O)N[C@@H](CS)C(=O)N[C@@H](CCCNC(=N)N)C(=O)N[C@@H](CS)C(=O)N[C@H](C(=O)N[C@@H](CS)C(=O)N[C@@H](CCCNC(=N)N)C(=O)N[C@@H](CCCNC(=N)N)C(N)=O)C(C)C [BTD15a] (H-RCVCRRGVCRCVCRR-NH2; N-terminus assumed)
64 µg/mL: Modal MIC90 [12, 24]
> 128 µg/mL: Modal MIC [3, 19]
17.5 µM: Modal MIC ([6]; M6, 20 h) | Modal MIC ([7]; shown in µM) | Modal MIC50 ([12]; NCPF 3281, 20 h)
4.4 µM: Modal MIC ([2]; NCTC 12923, 20 h) | Modal MIC ([5]; shown in µM) | Modal MIC ([8]; shown in µM) | Modal MIC ([9]; shown in µM) | Modal MIC ([10]; shown in µM) | Modal MIC ([11]; ATCC 9144, 20 h) | Modal MIC50 ([16]; NCPF 8760, 20 h) | Modal MIC90 ([16]; NCPF 8760, 20 h)
2.2 µM: Modal MIC ([4]; ATCC 17978, 20 h)
> 70.2 µM: Modal MIC ([3]; shown in µM)
32 µg/mL: Modal MIC [6, 21] | Modal MIC [7, 19] | Modal MIC50 [12, 23]
8.8 µM: Modal MIC ([1]; LEC001, 20 h) | Modal MIC50 ([14]; NCPF 3876, 20 h) | Modal MIC90 ([14]; NCPF 3876, 20 h)
16 µg/mL: Modal MIC [1, 17] | Modal MIC50 [14, 27] | Modal MIC90 [14, 28]
128 µg/mL: Modal MIC50 [13, 25] | Modal MIC90 [13, 26] | Modal MIC50 [15, 29] | Modal MIC90 [15, 30]
8 µg/mL: Modal MIC [2, 18] | Modal MIC [5, 19] | Modal MIC [8, 19] | Modal MIC [9, 19] | Modal MIC [10, 19] | Modal MIC [11, 22] | Modal MIC50 [16, 31] | Modal MIC90 [16, 32]
4 µg/mL: Modal MIC [4, 20]
35 µM: Modal MIC90 ([12]; NCPF 3281, 20 h)
70.2 µM: Modal MIC50 ([13]; NCPF 8018, 20 h) | Modal MIC90 ([13]; NCPF 8018, 20 h) | Modal MIC50 ([15]; NCPF 3209, 20 h) | Modal MIC90 ([15]; NCPF 3209, 20 h)

C[C@H](NC(=O)CNC(=O)[C@H](CCCCN)NC(=O)[C@@H](N)CS)C(=O)N[C@@H](Cc1ccccc1)C(=O)N[C@@H](CCCCN)C(=O)N[C@@H](CCC(N)=O)C(=O)N[C@H](C(=O)N[C@@H](CS)C(=O)N[C@@H](CCCCN)C(=O)N[C@@H](CS)C(=O)N[C@@H](Cc1ccc(O)cc1)C(N)=O)[C@@H](C)O [Os(11-22)a] (H-CKGAFKQTCKCY-NH2; N-terminus assumed)
> 128 µg/mL: Modal MIC [1, 17] | Modal MIC [2, 18] | Modal MIC [3, 19] | Modal MIC [4, 20] | Modal MIC [5, 19] | Modal MIC [6, 21] | Modal MIC [7, 19] | Modal MIC [8, 19] | Modal MIC [9, 19] | Modal MIC [10, 19] | Modal MIC [11, 22] | Modal MIC50 [12, 23] | Modal MIC90 [12, 24] | Modal MIC50 [13, 25] | Modal MIC90 [13, 26] | Modal MIC50 [14, 27] | Modal MIC90 [14, 28] | Modal MIC50 [15, 29] | Modal MIC90 [15, 30] | Modal MIC50 [16, 31] | Modal MIC90 [16, 32]
> 91.7 µM: Modal MIC ([1]; E. coli LEC001 (R), shown in µM) | Modal MIC ([2]; E. coli NCTC 12923 (S), shown in µM) | Modal MIC ([3]; shown in µM) | Modal MIC ([4]; A. baumannii ATCC 17978 (S), shown in µM) | Modal MIC ([5]; shown in µM) | Modal MIC ([6]; K. pneumoniae M6 (S), shown in µM) | Modal MIC ([7]; shown in µM) | Modal MIC ([8]; shown in µM) | Modal MIC ([9]; shown in µM) | Modal MIC ([10]; shown in µM) | Modal MIC ([11]; S. aureus (MSSA) ATCC 9144 (S), shown in µM) | Modal MIC50 [12, 33] | Modal MIC90 [12, 33] | Modal MIC50 [13, 34] | Modal MIC90 [13, 34] | Modal MIC50 [14, 35] | Modal MIC90 [14, 35] | Modal MIC50 [15, 36] | Modal MIC90 [15, 36] | Modal MIC50 [16, 37] | Modal MIC90 [16, 37]
